Assay results published in patent publication US20060111335A1, “Photoactivated anti-viral and anti-cancer agent” (priority 2002, published 2006).

Experiments:
CT DNA [1] = test: Dark interaction of DPPZPHEN with CT DNA, UV-Vis absorption titration at 380 nm; type: binding, calf; details: CT DNA, from molar extinction coefficient at 380 nm
Description: (§1) General. The quantity of DNA was determined by the Burton assay (Burton, Biochem. J., 62:315-322 (1956)), and its rhodium content was quantitated using flame atomic absorption spectroscopy (AA). The equilibrium constant for interaction between DPPZPHEN and CT-DNA in the dark was calculated from UV-Vis absorption titration measurements at 380 nm (Wolfe et al., Biochem., 26:6392-6396 (1987); Schemel et al., Biopolymers, 10:465-480 (1971)). Cell viability was determined using the MTT assay (Denizot et al., J. Immunol. Methods, 89:271-277 (1986)). SINV was purified on sucrose gradients as previously described (Owen et al., J. Virol., 70:2757-2763 (1996)). The titer was generally 7-8 log10 pfu/mL at the beginning of each experiment.
Interaction of DPPZPHEN with DNA. […] An intrinsic binding constant of […] 3.4×10^5 M^−1 was calculated using the molar extinction coefficient at the λmax (380 nm) at each titration point.

CT DNA [2] = test: Photolysis with calf thymus DNA: rhodium covalently bound to DNA; type: binding; details: irradiation >330 nm
Description: as §1, with “(1996)).” for “(1996)). The titer was generally 7-8 log10 pfu/mL at the beginning of each experiment.”
Photolysis with Calf Thymus DNA (CT DNA). Solutions consisting of 1 mL aliquots of 0.58 mM DPPZPHEN and 2.7 mg/mL CT DNA were irradiated with λ>330 nm light. After irradiation, the solutions were purified by exhaustive dialysis and three cycles of precipitation and resuspension. The DNA and Rh content were determined and/or the DNA was utilized in size exclusion chromatography experiments (Mahnken et al., J. Am. Chem. Soc., 114:9253-9265 (1992)).

φX-174 plasmid DNA = test: Photonicking of φX-174 plasmid DNA, gel electrophoresis; type: biochemical
Description: Photolysis with φX-174 Plasmid DNA. Metal complex solutions (with or without quenchers) were saturated with oxygen or argon prior to irradiation. The solutions were further degassed after being mixed with the plasmid. The final solution concentrations were: DPPZPHEN ([…]), φX-174 plasmid DNA (205 μM in base pairs), superoxide dismutase (25 μg/mL), 2-propanol (0.5 M), mannitol (6.25 mM), histidine (8 mM).
Experiments were conducted as described in Example X to evaluate the amount photonicking that occurred in the dark and upon exposure to light for 37TMBP, 56TMBP, OCTBP, BISNMe2, TMOBP, TIOBP, TPBP, BISTAP and BISDPPZ.

GN4 cells = test: Phototoxicity to GN4 tumor cells, MTT assay; type: cell-based, canine; details: dark, zero time point
Description: Photolysis with Tumor Cells.
Media was decanted from the flask. […] Trypsin-EDTA was then decanted and the flask was incubated at 37° C. for 8 minutes. […] Released cells were suspended in 5 mL of media and shaken well. […] The remaining cells were discarded.
Cells were plated, incubated with the drug, and photolysis was conducted as for the KB cell lines.

[3] = Reversed phase HPLC elution on C8 column as measure of hydrophobicity; type: physicochemical; details: 45% acetonitrile in 100 mM ammonium acetate pH 5.4
Description: Reversed phase high performance liquid chromatography (RP-HPLC) was carried out on C8 columns. Compounds were tested using 20%, 30% and 45% acetonitrile in 100 mM ammonium acetate at pH 5.4 for elution on a C8 column, with the intention of achieving an elution time of about 15 minutes. It was expected that the more hydrophobic a compound, the higher the acetonitrile content one would need for the eluent.

cells = test: Phototoxicity, summary statement of Example XII; type: cell-based
KB cells = test: Phototoxicity to KB tumor cells, MTT assay; details: dark, zero time point
Description: Photolysis with Tumor Cells. […] At the beginning of an experiment media was removed from all plates and the cells were washed with 1 mL of PBS or Hank's salt solution. Drug solution (2 mL) or buffer solution (2 mL) was added to each dish. […] Cells were incubated, with or without metal complex, for 4 hours. After incubation, the solutions were removed from the dishes and the dishes were washed with 1 mL of PBS or Hank's salt solution. A fresh 1 mL of PBS or Hank's salt solution was added to each dish and these were placed on a turntable that sat on the top part of the photolysis chamber. […] The plates were then incubated for 40-48 hours before a determination of the extent of cell toxicity by MTT assay.
Cells were incubated in 75 cm^2 culture flasks. They were grown in Dulbecco's Modified Eagles Medium (D-MEM) supplemented with 10% heat inactivated fetal bovine serum (FBS), 1% L-glutamine-penicillin-streptomycin and 1% amphotericin-B. When cells were not plated for use in an experiment, they were transferred when they were 75-100% confluent using the following procedure. Media was decanted from the flask. Cells were rinsed 1-2 times with 10 mL of Hank's Balanced salt solution. […] Trypsin-EDTA was then decanted and the cells were released from the wall of the flask by tapping the side of the flask. Released cells were suspended in 5 mL media and 1 mL of this suspension was placed in a new culture flasks containing 20 mL of fresh media. The remaining cells were discarded. A culture flask can be used for 3 transfers.
Usually 16-24 hours before a photolysis experiment, cells were plated in 35×10 mm tissue culture dishes and incubated at 37° C. until the experiment was begun. Cells were about 75-100% confluent in the 75 cm^2 culture flask when plated. After being washed and released from the flask as described above, cells were suspended in 40 mL media and 1.5 mL of suspension was placed in each dish.
The concentration of the solution was 70 μM.
The cell dishes were incubated with drug or Hanks balanced salt solution (1 mL) for 3 hours. After incubation, solutions were decanted from the plates and 1 mL of Hank's Balanced salt solution were placed in each. […] Following photolysis, Hank's Balanced salt solutions were decanted and 1 mL of fresh media was placed in each plate.
Plates were incubated for 65 hours and then analyzed for cell survival by MT assay. 5 mg/mL MTT solution in water was prepared and 100 μL of this solution was added to each plate and the plates were incubated for 1.5 hours. Purple crystals formed from live cells. Media was gently removed from plates using a Pasteur pipette, the purple crystals that remained at the bottom of the dish were dissolved in 6 mL of isopropanol.
Phototoxicity studies with long wavelength light (>400 nm). […]

[Cl-].[Cl][Rh+]12([Cl])([N]3C=CC=c4ccc5c(c43)[N]1C=CC=5)[N]1C=CC=c3c1c1c(c4nc5ccccc5nc34)=CC=C[N]12 [DPPZPHEN, cis-dichloro(dipyrido[3,2a-2′3′c]phenazine)(1,10-phenantroline) rhodium(III) chloride]
intrinsic binding constant (Keq, association constant with DNA) (CT DNA [1]): 340000 M⁻¹ | bases per bound molecule of Rh (CT DNA [2]): ~18 bases | frank nicks / nicking of φX-174 supercoiled plasmid DNA upon irradiation (φX-174 plasmid DNA; 311 nm irradiation, Example VIII): light dose dependent | photonicking of φX-174 plasmid DNA (φX-174 plasmid DNA; Example IX, dark and upon exposure to light): found to photonick | protection of the DNA from photonicking by ROS quenchers or argon (φX-174 plasmid DNA; oxygen-saturated solutions with quenchers, and under argon, relative to buffered control): no significant level of protection | cell toxicity in the absence of light (GN4 cells): no appreciable degree of cell toxicity | elution time [3]: about 15 minutes | phototoxicity (cells): are phototoxic | cell toxicity in the absence of light (KB cells): no appreciable degree of cell toxicity
